Data published in patent US12667584B2, “Adenosine analog and its use in regulating the circadian clock” (NATIONAL INSTITUTE OF BIOLOGICAL SCIENCES, BEIJING, priority 2017, dated 2026).

Tests used:
[1] = test system: Per2-Luc reporter U2OS cells (D15); assay: Circadian phase shift cell assay in D15 cells, 384 well plate, Tecan, with or without pentostatin; assay type: cell-based, human
[2] = test system: Per2::LUC adult murine fibroblasts; assay: Time-of-admission phase shift and amplitude in Per2::LUC adult murine fibroblasts; assay type: cell-based, mouse
Description: In above investigation, we found cordycepin (cordycepin-like nucleosides) shift the circadian phase, therefore it could be seemed as a circadian time giver (zeitgeiber). One prominent character of zeitgeiber is phase dependent function. Therefore, we further tested whether cordycepin also has the character. We use both transcriptional reporter (Per2:luc U2OS cells) translational reporter (Per2::LUC adult murine fibroblasts) model to investigate this character. The two reporter were seeded in 3.5 cm dish, transferred into lumicycle, and treated with cordycepin (100 μM in Per2:luc U2OS cells and 25 μM in Per2::LUC adult murine fibroblasts) every 2 hours from CT 0 to CT 24. 3 days after treatment and data analysis, we found in both reporter cells, cordycepin show highly “time-of-admission” dependent phase-change, 12 h phase shift when applied at CT10 and nearly 0 h phase shift when applied at CT 20 (F). […] To test this, we treated nearly damped Per2::LUC adult murine fibroblasts at CT 20 with DMSO or 25 μM cordycepin.

[3] = HPLC-MASS analysis of CSF after tail vein injection; assay type: in vivo, rat; conditions: 15 mg/kg tail vein
Description: HPLC-MASS analysis CSF: 8 W SD rats are bought from Beijing Vital River, housed in individually cage in a temperature- and humidity-controlled SPF facility, with ad libitum access to food and water. The animals were entrained under 12 h light/dark photoperiod for two weeks to synchronize the endogenous circadian clock of the mice to the ambient light-dark cycle, light intensity is about 50˜100 lux. […] Finally, each 450 μl supernatant was collected into a new 1.5 ml tube, dried with SpeedVac and analyzed with HPLC-MASS facility.
To test whether cordycepin function in vivo, we firstly tested luciferase signal level by live imaging of Per2:LUC mice after intraperitoneal injection of 15 mg/kg cordycepin or DMSO. […] Prior evaluation the jet-leg cure ability of cordycepin, we detected whether cordycepin and it's prodrug pro-CA03 can penetrate BBB. We injected cordycepin or pro-CA03 via tail vein and time course sampled CSF and analyzed cordycepin pro-CA03 level with HPLC-MASS method. […] Finally we evaluated the jet-leg cure ability of cordycepin, pro-CA03 and Pro-CA04 with mice behavioral experiment. […]

C57BL/6j mice = assay: Wheel running jet-lag experiment, 8 h phase advance or delay; assay type: in vivo, mouse
Description: Wheel running experiment: Male C57Bj/6 mice at 7 w old were purchased from the Nanjing Biomedical Research Institute of Nanjing University introduced from Jackson Laboratory, housed in individually wheel-running cage in a temperature- and humidity-controlled SPF facility, with ad libitum access to food and water. The animals were entrained under 12 h light/dark photoperiod for two weeks to synchronize the endogenous circadian clock of the mice to the ambient light-dark cycle, light intensity is about 50˜100 lux. After synchronization, light-dark cycles were 8-hr phase-advanced or phase-delayed. On the day of light-dark cycle was shifted advance, mice were firstly fasted at CT 3, then 15 mg/kg bw CA03, 15 and 30 mg/kg bw pro-CA03, 15 and 30 mg/kg bw pro-CA04 or DMSO were intraperitoneal injection at CT 12, and light on time (CT 0) was shifted from 7 am to 11 pm), finally re-feed and inject drug again at CT 23 of the old light-dark cycle. CA03 and pro-CA04 were firstly dissolved in DMSO to the concentration of 200 μg/μl, then dilute with saline to the final concentration of 1000 μg/ml for intraperitoneal injection. Pro-03 was firstly dissolved in DMSO to the concentration of 200 μg/μl, then dilute with 2% tween80 (in sterilized water) to the final concentration of 1000 μg/ml for intraperitoneal injection. On the day of light-dark cycle was shifted delayed, mice were firstly fasted at ZT 3, then 15 mg/kg bw CA03, 15 and 30 mg/kg bw pro-CA03, 15 and 30 mg/kg bw pro-CA04 or DMSO were intraperitoneal injection at CT 12, and light off time (CT12) was shifted from […] to 3 am), finally re-feed and inject drug again at CT 23 of the old light-dark cycle. Locomotor activity was recorded in 10-min bins wheel running (Actimetrics), and the data obtained were analysed with Clocklab software (Actimetrics). All animal experimental procedures were performed in accordance with the protocol approved by the Institutional Animal Care and Usage Committee (IACUC) of the National Institute of Biological Sciences, Beijing.
Under a standard jet-lag protocol {Yamaguchi, 2013}, wild-type C57BL/6j mice usually take ˜10 d to adapt to 8 h phase advance. […] Similarly, the drug treated mice adapt faster to the phase delay (FIG. 2D&2E).
To test whether cordycepin function in vivo, we firstly tested luciferase signal level by live imaging of Per2:LUC mice after intraperitoneal injection of 15 mg/kg cordycepin or DMSO. We found cordycepin induce more than 4 folds increase of luciferase signal in liver when compared with DMSO control (A). […] We also reconfirmed endogenous transcription rate of core clock genes by measuring the pre-mRNA with qPCR in the liver (B). We examined RRE genes (including Bmal1, Clock, Npas2, Cry1 and Nfil3), internal control genes (including Gapdh, Tbp and Actin) and E-box genes (including Per1, Per2, Dbp and Nr1d1). We designed at least 2 primers for each gene. […] Prior evaluation the jet-leg cure ability of cordycepin, we detected whether cordycepin and it's prodrug pro-CA03 can penetrate BBB. We injected cordycepin or pro-CA03 via tail vein and time course sampled CSF and analyzed cordycepin pro-CA03 level with HPLC-MASS method. […] Finally we evaluated the jet-leg cure ability of cordycepin, pro-CA03 and Pro-CA04 with mice behavioral experiment. Wild-type C57BL/6j mice typically take ˜10 days to adapt to an 8 h phase advance. […]

PER2 locus = assay: ChIP-qPCR analysis for the PER2 locus; assay type: cell-based
Description: Human and mouse circadian oscillators are driven by interlocked transcriptional and translational feedback loop. Bmal1 and Clock are transcriptional factors and function as positive arm to active negative arm genes transcription, including Per and Cry. Per and Cry are transcriptional repressor and feedback repress Bmal1/Clock's transcription activity thereby inhibit its own transcription. […] We also confirmed this by ChIP-qPCR experiments. Cordycepin treatment 30 min immediately release Cry1/2 and Ruvbl2 binding at Per2 gene promoter.

SMILES: Nc1ncnc2c1ncn2[C@@H]1O[C@H](CO)C[C@H]1O [Cordycepin, 3′-deoxy-adenosine]
- concentration of eliciting 12 h phase shift (potency) ([1]; pentostatin containing medium (5 μg/ml)): 200 nM
- concentration of eliciting 12 h phase shift (potency) ([1]; pentostatin containing medium (5 μg/ml), listed as cordycepin): 180 nM
- concentration of eliciting 12 h phase shift (potency) ([1]; without pentostatin): 25000 nM
- phase shift ([2]; 25 μM applied at CT10): 12 h
- phase shift ([2]; 25 μM applied at CT 20): ~0 h
- amplitude ([2]; 25 μM at CT 20, nearly damped fibroblasts): increase the amplitude
- time of peak concentration in CSF after injection [3]: 1 min
- adaptation time in phase-delay assay (C57BL/6j mice; DMSO 6 days): 3 days
- adaptation time to 8 h phase advance (C57BL/6j mice; twice injection, DMSO ~10 d): 4 days
- binding of BMAL1 at PER2 locus (PER2 locus): remained unchanged
- binding of CRY2/RUVBL2 at PER2 locus (PER2 locus): released
